According to patent US11192921B2 (priority 2017, dated 2021):
Where “and” joins values, the source holds several entries; their conditions need not be identical. Equal values may be shown once. No end group written: not given here.

Legend:
[1] = test system: Kunming mice; type: in vivo; settings: mouse, in vivo
[2] = test system: Kunming mice; settings: mouse, in vivo
[3] = test system: Female Kunming mice; type: in vivo; settings: mouse, in vivo, ip

With “GCCSTPPCAVLYC (cysteine pairing not given here) [Conotoxin, reference compound]” the “Pain threshold (tail flick)” value [1] was 2.23 ± 0.18 s and 2.32 ± 0.28 s and 2.21 ± 0.12 s and 2.31 ± 0.18 s and 2.12 ± 0.12 s and 2.63 ± 0.12 s, the “cumulative foot licking time, Phase I” value [2] was 50.38 ± 9.38 and the “cumulative foot licking time, Phase II” value [2] was 53.64 ± 15.32. The Pain threshold [3] was 27.29 ± 0.48 s and 29.32 ± 0.18 s and 24.1 ± 0.28 s and 30.39 ± 0.28 s and 27.39 ± 0.28 s and 26.21 ± 0.38 s and 24.63 ± 0.12 s.
